Data set [1] relates to glioma cells. The settings on record: cited from earlier work.
The conditions of data set [2]: cited from earlier work.
The test system of data set [3] is OVCAR 3 Cancer cells. Briefly: Nanoformulated quercetin in mice with implanted tumor. To be noted: mouse, in vivo. The protocol: Animals—Immunodeficient, female athymic mice aged 5-6 weeks and weighing between 18 and 20 g were purchased from Taconic Biosciences (Albany, NY). All animal studies were conducted at the animal facility of the Veteran Affairs Medical Center, Albany, NY in accordance with and approved by institutional guidelines for humane animal treatment and according to the current guidelines. Mice were maintained under specific pathogen-free conditions and housed under controlled conditions of temperature (20-24° C.) and humidity (60-70%) and 12 h light/dark cycle with ad libitum access to water and food. Mice were allowed to acclimatize for 5 d prior to the start of study.
Treatment—OVCAR 3 Cancer cells (1×10^6) were implanted subcutaneously in right flank of each animal. In the first set of experiments, control, free Quercetin (3 mg/kg), NPS-quercetin(3 mg/kg), and FA-NPs-quercetin (3 mg/kg) were injected subcutaneously to the mice everyday (for 14 days). The control was PBS, after humane sacrifice of animals at 14 days, tumors were harvested and amount of QC was measured.

For `O=c1c(O)c(-c2ccc(O)c(O)c2)oc2cc(O)cc(O)c12` [Quercetin, quercetin], the angiogenesis result in data set [1] is “suppression of angiogenesis”. The water solubility entry in data set [2] is on record as “not water soluble”.

`O=c1c(O)c(-c2ccc(O)c(O)c2)oc2cc(O)cc(O)c12` [Free QC, quercetin]: in data set [3], the “adverse toxic effect on the health of tumor bearing mice” value was “does not have any adverse toxic effect”.

The values above are taken from patent publication US12213958B2, “Compositions, methods, systems and/or kits for preventing and/or treating neoplasms” (Research Cancer Institute of America, priority 2017, dated 2025).
